Measured values reported in patent US8952024B2, “Herbicidal pyrimidone derivatives” (E I du Pont de Nemours and Company, priority 2009, dated 2015).

Columns and labels:
Format in all cases: in vivo
rice (Oryza sativa) = assay: Test B flooded paddy test; conditions: for Plant response rating, Flood, Rice: 250 g ai/ha, flooded paddy test, visual rating on 0 to 100 scale (0 no effect, 100 complete control) after 13 to 15 days; for Plant response rating, Rice: Flood (flooded paddy test), 62 g ai/ha, scale of 0 to 100 where 0 is no effect and 100 is complete control, 13 to 15 days
Procedure, shortened: (§1)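 Flooded-pot test: water raised to 3 cm above soil when treating, compound put in the water, level unchanged thereafter. Plants were at 2 leaves. Readout after 13 to 15 days, visual, relative to controls; 0 signifies no effect and 100 complete control.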

[1] = system: umbrella sedge (Cyperus difformis); assay: Test B flooded paddy test; conditions: for Plant response rating, Flood, Sedge, Umbrella: 250 g ai/ha, flooded paddy test, visual rating on 0 to 100 scale (0 no effect, 100 complete control) after 13 to 15 days; for Plant response rating, Sedge, Umbrella: Flood (flooded paddy test), 62 g ai/ha, scale of 0 to 100 where 0 is no effect and 100 is complete control, 13 to 15 days
Procedure, shortened: as §1

[2] = system: ducksalad (Heteranthera limosa); assay: Test B flooded paddy test; conditions: for Plant response rating, Flood, Ducksalad: 250 g ai/ha, flooded paddy test, visual rating on 0 to 100 scale (0 no effect, 100 complete control) after 13 to 15 days; for Plant response rating, Ducksalad: Flood (flooded paddy test), 62 g ai/ha, scale of 0 to 100 where 0 is no effect and 100 is complete control, 13 to 15 days
Procedure, shortened: as §1

[3] = system: barnyardgrass (Echinochloa crus-galli); assay: Test B flooded paddy test; conditions: for Plant response rating, Flood, Barnyardgrass: 250 g ai/ha, flooded paddy test, visual rating on 0 to 100 scale (0 no effect, 100 complete control) after 13 to 15 days; for Plant response rating, Barnyardgrass: Flood (flooded paddy test), 62 g ai/ha, scale of 0 to 100 where 0 is no effect and 100 is complete control, 13 to 15 days
Procedure, shortened: as §1

[4] = system: morningglory (Ipomoea spp.); assay: Test A pre-/postemergence plant response; conditions: for Morningglory plant response rating: visual injury, 0 to 100 scale (0 no effect, 100 complete control), approx. ten days
Procedure, shortened: (§2)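 Visual injury rating on a 0–100 scale (0 = no effect, 100 = complete control) was made versus untreated controls after about ten days in the greenhouse. Compounds, formulated in a non-phytotoxic solvent mix containing surfactant, were sprayed preemergence onto loam/sand soil and postemergence onto one- to two-leaf plants.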

[5] = system: pigweed (Amaranthus retroflexus); assay: Test A pre-/postemergence plant response; conditions: for Pigweed plant response rating: visual injury, 0 to 100 scale (0 no effect, 100 complete control), approx. ten days
Procedure, shortened: as §2

[6] = system: wheat (Triticum aestivum); assay: Test A pre-/postemergence plant response; conditions: for Wheat plant response rating: visual injury, 0 to 100 scale (0 no effect, 100 complete control), approx. ten days
Procedure, shortened: as §2

[7] = system: velvetleaf (Abutilon theophrasti); assay: Test A pre-/postemergence plant response; conditions: for Velvetleaf plant response rating: visual injury, 0 to 100 scale (0 no effect, 100 complete control), approx. ten days
Procedure, shortened: as §2

corn (Zea mays) = assay: Test A pre-/postemergence plant response; conditions: for Corn plant response rating: visual injury, 0 to 100 scale (0 no effect, 100 complete control), approx. ten days
Procedure, shortened: as §2

[8] = system: giant foxtail (Setaria faberii); assay: Test A pre-/postemergence plant response; conditions: for Foxtail, Giant plant response rating: visual injury, 0 to 100 scale (0 no effect, 100 complete control), approx. ten days
Procedure, shortened: as §2

[9] = system: large crabgrass (Digitaria sanguinalis); assay: Test A pre-/postemergence plant response; conditions: for Crabgrass, Large plant response rating: visual injury, 0 to 100 scale (0 no effect, 100 complete control), approx. ten days
Procedure, shortened: as §2

[10] = system: barnyardgrass (Echinochloa crus-galli); assay: Test A pre-/postemergence plant response; conditions: for Barnyardgrass plant response rating: visual injury, 0 to 100 scale (0 no effect, 100 complete control), approx. ten days
Procedure, shortened: as §2

[11] = Postemergence, 125 g ai/ha, 0 to 100 scale where 0 is no effect and 100 is complete control
[12] = Preemergence, 125 g ai/ha, 0 to 100 scale, 0 = no effect, 100 = complete control
[13] = Preemergence, 500 g ai/ha, 0 to 100 scale, 0 = no effect, 100 = complete control

Row | SMILES | Plant response rating, Flood, Rice (rice (Oryza sativa)) | Plant response rating, Rice (rice (Oryza sativa)) | Plant response rating, Flood, Sedge, Umbrella [1] | Plant response rating, Sedge, Umbrella [1] | Plant response rating, Flood, Ducksalad [2] | Plant response rating, Ducksalad [2] | Plant response rating, Flood, Barnyardgrass [3] | Plant response rating, Barnyardgrass [3] | Plant response rating, Morningglory [4, 11] | Morningglory plant response rating ([4]; Postemergence, 500 g ai/ha) | Plant response rating, Morningglory [4, 12] | Plant response rating, Morningglory [4, 13] | Plant response rating, Pigweed [5, 11] | Pigweed plant response rating ([5]; Postemergence, 500 g ai/ha) | Plant response rating, Pigweed [5, 12] | Plant response rating, Pigweed [5, 13] | Plant response rating, Wheat [6, 11] | Wheat plant response rating ([6]; Postemergence, 500 g ai/ha) | Plant response rating, Wheat [6, 12] | Plant response rating, Wheat [6, 13] | also measured
1 | Cc1ccc(C)c(-n2c(-c3ccccc3)ncc(C(=O)c3cnoc3C3CC3)c2=O)c1 [Compound 222] | 0 | 0 | 40 | 30 | 65 | 50 | 0 | 0 | 30 | 40 | 0 | 40 | 40 | 70 | 0 | 0 | 0 | 0 | 0 | 0 | Plant response rating, Velvetleaf [7, 11]: 60; Velvetleaf plant response rating ([7]; Postemergence, 500 g ai/ha): 90; Plant response rating, Velvetleaf [7, 12]: 0; Plant response rating, Velvetleaf [7, 13]: 60; Plant response rating, Corn (corn (Zea mays); [11]): 0; Corn plant response rating (corn (Zea mays); Postemergence, 500 g ai/ha): 0; Plant response rating, Corn (corn (Zea mays); [12]): 0; Plant response rating, Corn (corn (Zea mays); [13]): 0; Plant response rating, Foxtail, Giant [8, 11]: 0; Foxtail, Giant plant response rating ([8]; Postemergence, 500 g ai/ha): 40; Plant response rating, Foxtail, Giant [8, 12]: 30; Plant response rating, Foxtail, Giant [8, 13]: 60; Plant response rating, Crabgrass, Large [9, 11]: 0; Crabgrass, Large plant response rating ([9]; Postemergence, 500 g ai/ha): 30; Plant response rating, Crabgrass, Large [9, 12]: 20; Plant response rating, Crabgrass, Large [9, 13]: 20; Plant response rating, Barnyardgrass [10, 11]: 10; Barnyardgrass plant response rating ([10]; Postemergence, 500 g ai/ha): 80; Plant response rating, Barnyardgrass [10, 12]: 0; Plant response rating, Barnyardgrass [10, 13]: 60
2 | CCn1c(-c2cccc(C)c2)ncc(C(=O)C2=C(O)C3CCC(C3)C2=O)c1=O (centres unmarked) [Compound 231] | 0 | 0 | 75 | 0 | 0 | 0 | 40 | 40 | 90 | 100 | 10 | 80 | 80 | 90 | 50 | 80 | 0 | 0 | 0 | 0 | Plant response rating, Velvetleaf [7, 11]: 90; Velvetleaf plant response rating ([7]; Postemergence, 500 g ai/ha): 100; Plant response rating, Velvetleaf [7, 12]: 50; Plant response rating, Velvetleaf [7, 13]: 60; Plant response rating, Corn (corn (Zea mays); [11]): 0; Corn plant response rating (corn (Zea mays); Postemergence, 500 g ai/ha): 40; Plant response rating, Corn (corn (Zea mays); [12]): 0; Plant response rating, Corn (corn (Zea mays); [13]): 20; Plant response rating, Foxtail, Giant [8, 11]: 60; Foxtail, Giant plant response rating ([8]; Postemergence, 500 g ai/ha): 80; Plant response rating, Foxtail, Giant [8, 12]: 0; Plant response rating, Foxtail, Giant [8, 13]: 60; Plant response rating, Crabgrass, Large [9, 11]: 50; Crabgrass, Large plant response rating ([9]; Postemergence, 500 g ai/ha): 70; Plant response rating, Crabgrass, Large [9, 12]: 40; Plant response rating, Crabgrass, Large [9, 13]: 90; Plant response rating, Barnyardgrass [10, 11]: 70; Barnyardgrass plant response rating ([10]; Postemergence, 500 g ai/ha): 90; Plant response rating, Barnyardgrass [10, 12]: 0; Plant response rating, Barnyardgrass [10, 13]: 60
